Assay results published in publication PMC8394532, “Structural and Functional Insights into the Biofilm-Associated BceF Tyrosine Kinase Domain from Burkholderia cepacia” (Biomolecules, 2021).

What was measured:
[1] = target: T1, BceF kinase domain (Burkholderia cepacia, UniProt Q0GYW2); assay: X-ray crystal structure, […] Å; assay type: binding; details: endogenous ADP co-purified from E. coli; active site; crystals pH 5.5
T1 construct: cytoplasmic kinase domain, residues 471-741; synthetic codon-optimised gene, N-terminal His6-TEV; E. coli BL21(DE3); partly phosphorylated C-terminal tyrosines

[2] = target: T1, BceF kinase domain; assay: microscale thermophoresis, NT-647 labelled protein; assay type: binding
[3] = target: the molecule itself; assay: SEC-MALS; Superdex 75 10/300 column, miniDAWN TREOS and Optilab T-rEX; SEC analysis at pH 7.5; single species of 59.1 kDa against a calculated monomer of 29.4 kDa

For `Nc1ncnc2c1ncn2[C@@H]1O[C@H](COP(=O)(O)OP(=O)(O)O)[C@@H](O)[C@H]1O` [ADP], the “X-ray crystal structure, 1.85 Å” value [1] was “The structure revealed an adenosine diphosphate (ADP) molecule bound at the active site”.

Work on `Nc1ncnc2c1ncn2[C@@H]1O[C@H](COP(=O)(O)OP(=O)(O)NP(=O)(O)O)[C@@H](O)[C@H]1O` [AMP-PNP] yielded a Kd [2] of 1.64 ± 0.22 mM.

B1: BceF kinase domain (residues 471-741) from Burkholderia cepacia (domain or fragment)
chain: RRNMFQGIEDPDRIERAFNLPLYGLVPQSAEQVKLDAQAEKSGSRTRPILASLRPKDLSVESLRSLRTAMQFAMMDAKNRVIVLTGPTPGIGKSFLTVNLAVLLAHSGKRVLLIDADMRRGLLDRYFGLTSQPGLSELLSDQSALEDAVRETPVQGLSFISAGTRPPNPSELLMSTRLPQYLEGLGKRYDVVLIDSPPVLAVTDATIIGRMAGSTFLVLRSGMHTEGEIADAIKRLRTAGVDLEGGIFNGVPPKARGYGRGYAAVHEYLSA
modifications: partly phosphotyrosine in the C-terminal tail 725-741 (MS/MS: 28% non-phosphorylated, 68% monophosphorylated mostly at the third tyrosine, position 14 of the peptide)
notes: His6 tag and TEV site at the N-terminus; cleaved with TEV in the preparation for crystallisation; also called isolated BceF kinase domain; BceF tyrosine kinase domain; source: E. coli BL21(DE3), purified (HisTrap, TEV cleavage, second HisTrap, SEC Superdex 200); not shown: His6, N-terminal, cleaved
B1 was tested, and the “stoichiometry N” value [3] was 2.
